According to article PMC10246841, “CCX559 is a potent, orally-administered small molecule PD-L1 inhibitor that induces anti-tumor immunity” (PLOS ONE, 2023):

Key:
PD-L1 = target: T1, PD-L1 (Homo sapiens, UniProt Q9NZQ7); experiment: plate-based (ELISA-type) PD-1/PD-L1 binding inhibition assay with recombinant proteins; also CD80/PD-L1 inhibition and PathHunter PD-L1 dimerization in U2OS cells
T1 construct: gene CD274; with PD-1 (displaced in the assay); PD-L1 homodimer induced

cynomolgus PD-L1 = target: T2, cynomolgus PD-L1 (Macaca fascicularis, UniProt G7PSE7); experiment: in vitro cynomolgus PD-L1/PD-1 interaction inhibition assay (S5 Fig); type: binding
T2 construct: with PD-1 (displaced in the assay)
T2 sequence (G7PSE7 19-238 limits assumed): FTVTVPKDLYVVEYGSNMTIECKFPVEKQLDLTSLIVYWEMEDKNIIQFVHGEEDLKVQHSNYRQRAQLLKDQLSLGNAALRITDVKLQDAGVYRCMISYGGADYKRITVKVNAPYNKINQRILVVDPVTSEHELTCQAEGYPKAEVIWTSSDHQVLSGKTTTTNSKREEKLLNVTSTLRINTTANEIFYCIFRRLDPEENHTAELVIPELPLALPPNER

T1 sequence (Q9NZQ7 19-290): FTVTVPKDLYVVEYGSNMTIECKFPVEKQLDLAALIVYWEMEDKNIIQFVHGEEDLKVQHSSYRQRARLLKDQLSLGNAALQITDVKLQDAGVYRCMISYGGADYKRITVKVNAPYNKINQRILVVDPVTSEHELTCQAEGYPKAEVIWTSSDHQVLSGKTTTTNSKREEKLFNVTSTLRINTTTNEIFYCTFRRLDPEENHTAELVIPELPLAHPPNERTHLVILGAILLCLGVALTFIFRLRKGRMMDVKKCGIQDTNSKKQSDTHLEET

Substance CCX559 has an IC50 (PD-L1) of 0.47 nM and an IC50 (cynomolgus PD-L1) of 0.21 nM.
